{"source": "patent US20030187048A1", "about": "“Method for inhibiting skin lesion formation using histamine as the active ingredient” (priority 1991, published 2003)", "key": {"[1]": {"system": "Varicella zoster (chickenpox) lesions", "conditions": "for Mean % Reduction In Healing Time per Lesion: compared to placebo gel; for Itching score / Local pain score: scale 0 to 5; for Mean Time to Lesion Healing: placebo patients 7 days", "method": "Treatment consisted of topical application three times a day for a period of five days. […] The mean percent reduction in complete healing time per average pox lesion was evaluated grouping the two patients who received active gel concentrations together and comparing to the two patients receiving placebo gel.\nSubjects were assigned randomly to one of three active ingredient levels being evaluated, 0.0%, 0.0067% and G.009% by weight of active ingredient.\nEach patient was contacted daily for 5 days for his or her estimate of the symptomatic relief of any symptoms associated with Varicella zoster (chickenpox) as well as the patient's interpretation of total healing of the episode in addition to the patient's description of the lesions present. In an attempt to quantify responses, patients were asked to rate each symptom each day on a scale of 0 to 5 with 0 representing no evidence of the symptom and 5 representing to worst or most prominent evidence of the symptom ever for the patient. Subject compliance with the study regimen and the use of other medications was also assessed.\nLesions were monitored for the usual progression of the typical stages seen with Varicella zoster. Typical chickenpox begins as crops of small, red papules that almost immediately develop into clear, “tear drop” vesicles on an erythematous base which are usually not umbilicated. The lesions initially contain clear fluid, but within 24 hours the contents become cloudy. once this occurs, the vesicles are easily broken and become scabbed. Successive crops of lesions appear for 3 to 4 days."}, "[2]": {"system": "pressure sores (decubitus ulcers)", "conditions": "for Percent Reduction in Area from original Size / Mean Percent Reduction/Week: per patient; for Mean Percent Reduction/Week: lesion area from original size", "from_the_text": "Treatment included standardized decubitus ulcer care for all pressure sores as determined by the protocol for the study.\nProspective subjects were considered for the study if their pressure sores (decubitus ulcers) were free from infection and either a Stage I or a Stage II lesion.\nPatients were randomly assigned to one of four active ingredient levels being evaluated. […] Assignment of subjects to the four gel concentrations was unknown to the investigator.\nThe topical application of all gel concentrations to their respective, randomly assigned patients occurred once daily following careful rinsing of the pressure sore with sterile normal saline. After application of the appropriate gel concentration, each pressure sore was covered with a bio-occlusive dressing to minimize wound contamination.\nClinical evaluation included weekly classification of the stage of the pressure sores, the size and depth of the sores, the color, signs of infection (if present), odor (if present), and patient cooperation with treatment."}, "[3]": {"system": "oral mucositis (stomatitis) secondary to chemotherapy", "conditions": "for Mean % Reduction In Symptom (discomfort with food/drink) / Mean Percent Reduction From Original Per Day / Mean % Reduction In Symptom: group mean", "from_the_text": "Prospective subjects were considered for the study if their mucositis (stomatitis) was diagnosed by their oncologist as secondary to their chemotherapy and if their oncologist recommended them as candidates for the study.\nPatients were randomly assigned to one of three active ingredient levels being evaluated.\nFollowing diagnosis and recommendation of oral mucositis patients by their oncologists, qualified participants were instructed to topically, intraorally apply one teaspoonful of their respective, randomly assigned gel by swishing and holding the gel in their mouth for 2 minutes and then expectorating the gel.\nEvaluation of the extent of the oral mucous membrane involvement was based on each patient's estimate of this involvement (as a percentage) of the entire oral mucous membranes and each patient was contacted daily for this estimate as well as his or her estimate of the symptomatic relief of 5 common oral symptoms associated with mucositis (stomatitis) secondary to chemotherapy. In an attempt to quantify responses, patients were asked to rate each symptom each day an a scale of 0 to 5 with 0 representing no evidence of the symptom and 5 representing the worst or most vi prominent evidence of the symptom ever for the patient.\nPatient compliance with the study regimen and the use of other medications or treatments was also evaluated."}}, "note": "Where “and” joins values, the source holds several entries; their conditions need not be identical. Identical values can stand only once. Like-named read-outs stand apart in the source and are kept apart here.", "data": [{"smiles": "NCCc1c[nH]cn1", "note": "[IEP, 1H-imidazole-4-ethanamine,phosphate]", "values": [{"measurement": "Mean % Reduction In Healing Time per Lesion", "setting": "[1]; 0.0067% IEP gel", "value": 50.0, "unit": "%"}, {"measurement": "Itching score", "setting": "[1]; 0.0067% IEP gel, day 1", "value": 2}, {"measurement": "Local pain score", "setting": "[1]; 0.0067% IEP gel, day 1", "value": 2}, {"measurement": "Itching score", "setting": "[1]; 0.0067% IEP gel, day 2", "value": 0}, {"measurement": "Local pain score", "setting": "[1]; 0.0067% IEP gel, day 2", "value": 1}, {"measurement": "Itching score", "setting": "[1]; 0.0067% IEP gel, day 3", "value": 0}, {"measurement": "Local pain score", "setting": "[1]; 0.0067% IEP gel, day 3", "value": 0}, {"measurement": "Itching score", "setting": "[1]; 0.0067% IEP gel, day 4", "value": 0}, {"measurement": "Local pain score", "setting": "[1]; 0.0067% IEP gel, day 4", "value": 0}, {"measurement": "Itching score", "setting": "[1]; 0.0067% IEP gel, day 5", "value": 0}, {"measurement": "Local pain score", "setting": "[1]; 0.0067% IEP gel, day 5", "value": 0}, {"measurement": "Mean Time to Lesion Healing", "setting": "[1]; 0.0067% gel", "value": 3.5, "unit": "days"}, {"measurement": "Mean % Reduction In Healing Time per Lesion", "setting": "[1]; 0.009% IEP gel", "value": 64.28, "unit": "%"}, {"measurement": "Itching score", "setting": "[1]; 0.009% IEP gel, day 1", "value": 2}, {"measurement": "Local pain score", "setting": "[1]; 0.009% IEP gel, day 1", "value": 3}, {"measurement": "Itching score", "setting": "[1]; 0.009% IEP gel, day 2", "value": 0}, {"measurement": "Local pain score", "setting": "[1]; 0.009% IEP gel, day 2", "value": 1}, {"measurement": "Itching score", "setting": "[1]; 0.009% IEP gel, day 3", "value": 0}, {"measurement": "Local pain score", "setting": "[1]; 0.009% IEP gel, day 3", "value": 0}, {"measurement": "Itching score", "setting": "[1]; 0.009% IEP gel, day 4", "value": 0}, {"measurement": "Local pain score", "setting": "[1]; 0.009% IEP gel, day 4", "value": 0}, {"measurement": "Itching score", "setting": "[1]; 0.009% IEP gel, day 5", "value": 0}, {"measurement": "Local pain score", "setting": "[1]; 0.009% IEP gel, day 5", "value": 0}, {"measurement": "Mean Time to Lesion Healing", "setting": "[1]; 0.009% gel", "value": 2.5, "unit": "days"}, {"measurement": "Difference in mean percent reduction in complete healing time per lesion vs placebo", "setting": "[1]; combined 0.0067% and 0.009% groups, p<0.05", "value": "significant"}, {"measurement": "Progression of lesion stages", "setting": "[1]; lesions treated with 0.0067% and 0.009% gel", "value": "did not progress through the usual progression of lesions stages"}, {"measurement": "Untoward reactions", "setting": "[1]; topical gel 0.0067%, 0.009%, three times a day for five days", "value": "no untoward reactions"}, {"measurement": "Percent Reduction in Area from original Size", "setting": "[2]; 0.0045% IEP gel, end of treatment week 1", "value": "28.5% and 29.8%"}, {"measurement": "Percent Reduction in Area from original Size", "setting": "[2]; 0.0045% IEP gel, end of week 2", "value": "33.6% and 66.6%"}, {"measurement": "Percent Reduction in Area from original Size", "setting": "[2]; 0.0045% IEP gel, end of week 3", "value": "51.6% and 72.8%"}, {"measurement": "Percent Reduction in Area from original Size", "setting": "[2]; 0.0045% IEP gel, end of week 4", "value": "71.7% and 84.9%"}, {"measurement": "Percent Reduction in Area from original Size", "setting": "[2]; 0.0045% IEP gel, end of week 5", "value": "78.8% and 90.1%"}, {"measurement": "Percent Reduction in Area from original Size", "setting": "[2]; 0.0045% IEP gel, end of week 6", "value": "87.0% and 95.6%"}, {"measurement": "Percent Reduction in Area from original Size", "setting": "[2]; 0.0045% IEP gel, end of week 7", "value": "91.4% and 97.5%"}, {"measurement": "Percent Reduction in Area from original Size", "setting": "[2]; 0.0045% IEP gel, end of week 8", "value": "92.3% and 99.4%"}, {"measurement": "Percent Reduction in Area from original Size", "setting": "[2]; 0.0045% IEP gel, end of week 9", "value": "92.3% and 99.4%"}, {"measurement": "Percent Reduction in Area from original Size", "setting": "[2]; 0.0045% IEP gel, end of week 10", "value": 99.4, "unit": "%"}, {"measurement": "Mean Percent Reduction/Week", "setting": "[2]; 0.0045% gel", "value": "10.3% and 12.1%"}, {"measurement": "Percent Reduction in Area from original Size", "setting": "[2]; 0.0069% IEP gel, end of week 1", "value": "48.6% and 55.6%"}, {"measurement": "Percent Reduction in Area from original Size", "setting": "[2]; 0.0069% IEP gel, end of week 2", "value": "77.1% and 60.0%"}, {"measurement": "Percent Reduction in Area from original Size", "setting": "[2]; 0.0069% IEP gel, end of week 3", "value": "77.1% and 78.2%"}, {"measurement": "Percent Reduction in Area from original Size", "setting": "[2]; 0.0069% IEP gel, end of week 4", "value": "100% and 81.3%"}, {"measurement": "Percent Reduction in Area from original Size", "setting": "[2]; 0.0069% IEP gel, end of week 5", "value": 84.4, "unit": "%"}, {"measurement": "Percent Reduction in Area from original Size", "setting": "[2]; 0.0069% IEP gel, end of week 6", "value": 88.9, "unit": "%"}, {"measurement": "Percent Reduction in Area from original Size", "setting": "[2]; 0.0069% IEP gel, end of week 7", "value": 100, "unit": "%"}, {"measurement": "Mean Percent Reduction/Week", "setting": "[2]; 0.0069% gel", "value": "14.3% and 25.0%"}, {"measurement": "Percent Reduction in Area from original Size", "setting": "[2]; 0.009% IEP gel, end of week 1", "value": "66.7% and 56.5%"}, {"measurement": "Percent Reduction in Area from original Size", "setting": "[2]; 0.009% IEP gel, end of week 2", "value": "100.0% and 56.5%"}, {"measurement": "Percent Reduction in Area from original Size", "setting": "[2]; 0.009% IEP gel, end of week 3", "value": 100.0, "unit": "%"}, {"measurement": "Mean Percent Reduction/Week", "setting": "[2]; 0.009% gel", "value": "50.0% and 40.0%"}, {"measurement": "Reducing the size of pressure sores vs placebo gel", "setting": "[2]; 0.009% vs 0%, mean percent reduction in area per week, p<0.05", "value": "statistically significantly more effective"}, {"measurement": "Untoward effects", "setting": "[2]; in vivo", "value": "no untoward effects"}, {"measurement": "Mean % Reduction In Symptom (discomfort with food/drink)", "setting": "[3]; 0.0045% IEP gel", "value": 55.6, "unit": "%"}, {"measurement": "Mean Percent Reduction From Original Involvement Per Day", "setting": "[3]; 0.0045% IEP gel, per patient", "value": "33.3% and 18.0% and 25.0%"}, {"measurement": "Percent of Mouth that Lesions Occupy", "setting": "[3]; 0.0045% gel, Day 4, per patient", "value": "0% and 25% and 1%"}, {"measurement": "Percent of Mouth that Lesions Occupy", "setting": "[3]; 0.0045% gel, Day 5, per patient", "value": 0, "unit": "%"}, {"measurement": "Percent of Mouth that Lesions Occupy", "setting": "[3]; 0.0045% gel, Day 6, per patient", "value": "0% (2×) and 5%"}, {"measurement": "Percent of Mouth that Lesions Occupy", "setting": "[3]; 0.0045% gel, Day 7, per patient", "value": 0, "unit": "%"}, {"measurement": "Mean Percent Reduction From Original Per Day", "setting": "[3]; 0.0045% gel", "value": 25.4, "unit": "%"}, {"measurement": "Mean % Reduction In Symptom (discomfort with food/drink)", "setting": "[3]; 0.0275% IEP gel", "value": 52.8, "unit": "%"}, {"measurement": "Mean Percent Reduction From Original Involvement Per Day", "setting": "[3]; 0.0275% IEP gel, per patient", "value": "50.0% and 33.3% (2×)"}, {"measurement": "Percent of Mouth that Lesions Occupy", "setting": "[3]; 0.0275% gel, Day 1 of treatment, per patient", "value": "50% and 25% (2×)"}, {"measurement": "Percent of Mouth that Lesions Occupy", "setting": "[3]; 0.0275% gel, Day 2, per patient", "value": "30% and 25% (2×)"}, {"measurement": "Percent of Mouth that Lesions Occupy", "setting": "[3]; 0.0275% gel, Day 3, per patient", "value": "25% (2×) and 0%"}, {"measurement": "Percent of Mouth that Lesions Occupy", "setting": "[3]; 0.0275% gel, Day 4, per patient", "value": 0, "unit": "%"}, {"measurement": "Percent of Mouth that Lesions Occupy", "setting": "[3]; 0.0275% gel, Day 5, per patient", "value": 0, "unit": "%"}, {"measurement": "Percent of Mouth that Lesions Occupy", "setting": "[3]; 0.0275% gel, Day 6, per patient", "value": 0, "unit": "%"}, {"measurement": "Percent of Mouth that Lesions Occupy", "setting": "[3]; 0.0275% gel, Day 7, per patient", "value": 0, "unit": "%"}, {"measurement": "Mean Percent Reduction From Original Per Day", "setting": "[3]; 0.0275% gel", "value": 38.9, "unit": "%"}, {"measurement": "Difference in reduction of oral mucous membrane involvement vs placebo", "setting": "[3]; 0.0275% vs placebo, p<.O1", "value": "highly statistically significant"}, {"measurement": "Mean % Reduction In Symptom", "setting": "[3]; Table 9.7, 0.0045% gel", "value": 58.3, "unit": "%"}, {"measurement": "Mean % Reduction In Symptom", "setting": "[3]; Table 9.7, 0.0275% gel", "value": 83.3, "unit": "%"}, {"measurement": "Mean Percent Reduction Per Day in Discomfort with Food/Drink", "setting": "[3]; Table 9.7, 0.0275% gel, per patient", "value": "100.0% (2×) and 50.0%"}, {"measurement": "Untoward effects", "setting": "[3]; in vivo", "value": "no untoward effects"}]}]}
